The values below come from patent US9303069B2, “Peptides for treating cancer” (University of Mississippi Medical Center, priority 2014, dated 2016).

One experiment deals with MDA-MB-231 cells. The note with it: 48 h.
In experiment [1] the test system is SKOV3 cells. The experiment is described as follows: Hanging drops (anchorage independent growth), SKOV3. The note with it: IRIS peptide 5 μM versus scrambled peptide. It is filed as cell-based, human. The procedure: Hanging drops: In this technique, the anchorage independent growth ability of cells was measured.
Hanging Drop Method. Single-cell suspensions were made from monolayer cultures in growth medium. Cell density used was 250 cells per drop (20 μl) of medium dispensed onto a 6 cm dish (Corning Life Sciences, Union City, Calif.). The dish was then inverted, the drops were held in place by surface tension, and cells accumulated at the free liquid-air interface. The dishes were placed on a tray with water and incubated under standard conditions. Hanging cell-drops formed was analyzed using microscope. All experiments were done in triplicate.

The test system of experiment [2] is SKOV3 cells. The experiment is described as follows: Three-dimensional (3D) growth / acini formation in matrigel, SKOV3. It is filed as cell-based, human.
In another experiment the test system is BRCA1-IRIS and survivin. The experiment is described as follows: IHC of MDA-MB-468 tumors for BRCA1-IRIS and survivin. It is filed as in vivo, mice. The note with it: MDA-MB-468 tumors after treatment. An excerpt:
To study that on the molecular level, sections from these tumors were stained with H&E or for BRCA1-IRIS or survivin using immunohistochemistry. […] Accordingly, it is proposed that inactivating BRCA1-IRIS in TNBC patients might sensitize to lower paclitaxel concentrations to avoid the adverse side effects and also to prevent the recurrence of these tumors at a later point.
Immunohistochemistry (IHC). Breast tissue microarrays comprised of normal, DCIS, invasive and metastatic were purchased from US Biomax, Inc. Paraffin embedded tissue sections were de-waxed in xylene and rehydrated in alcohol. Antigen-retrieval: for FOXO3a and survivin was by heating the slides in citrate buffer (10 μM, pH 6.0) using microwave (Power level 4) for 10 minutes, for BRCA1-IRIS by incubating slides in pepsin (10 μM) for 20 min at 37° C. Endogenous peroxidase activity was suppressed by treating the slides with 3% H2O2 for 10 min. Slides were then incubated for 1 hour at room temperature with antibodies to human FOXO3a or survivin (Cell Signaling Technology, USA 1:400), or overnight at 4° C. with monoclonal anti-human BRCA1-IRIS (1:75). Vectastain Elite ABC Kit was used to develop the staining using horseradish peroxidase labeled secondary antibodies (1 hour at room temperature).

Ends that are not written are not given here.

Procedure for MDA-MB-231 cells: All cell lines were exposed to increasing concentrations of paclitaxel and BRCA1-IRIS expression, and cells' viability was then measured.
Stable clones were then exposed to 0, 10 or 20 μM of EGFR (Erlotinib), ErbB2 (CP-724714), PI3′K/AKT (LY294002), p38 (SB203580), ERK (PD98059) or JNK (SP600125) inhibitors for 24 hours.
First, to assess the effect of this IRIS peptide, equal numbers of HME, HME/IRIS, MDA-MB-231, MDA-MB-468 and BT549 cells were exposed to increasing concentrations of scrambled or IRIS peptide for 48 hours.
Cell viability under different experimental conditions was determined using the MTS assay. Briefly, cells (2.5×10^4 cells per well) were seeded in 96-well plates and incubated overnight at 37° C. in 10% humidified CO2 atmosphere. The next day they were incubated with varying concentration of peptide, or inhibitors for 24 hours at 37° C. Cell viability was determined using cell Titer 96® Aqueous (Promega, Madison, Wis., USA) following manufacturer's instructions. Cell viability (%) was expressed as a ratio of treated cells to control cells×100. Growth inhibition was also determined by manually counting cells in five different microscopic fields. Change in cell numbers (fold) was expressed as a ratio of the means of these recording of treated cells compared to control cells×100. Each experiment was done in triplicate, repeated three separate times.

In the case of “RRIRPRPPRLPRPRPRPLPFPRPGIGTRFLCLPQSIYRSELNVYAFGEHILQISKYS [IRIS peptide]”, in the experiment with MDA-MB-231 cells, the IC50 is approximately 5 µM. Further, the “ability to form hanging drops” value with SKOV3 cells [1] is on record as “complete loss of ability”. Also, the “decrease in ability to form invasive structures in matrigel” value in the experiment on SKOV3 cells [2] (SKOV3 cells) was more than 500 fold. In addition, the acini phenotype result in the experiment with SKOV3 cells [2] (SKOV3 in matrigel, day 10, peptide added every third day) is on record as “slightly bigger/organized/round acini”. Moreover, in the experiment with BRCA1-IRIS and survivin, the “BRCA1-IRIS and survivin expression in tumors (IHC)” value was “almost completely absent”.

Usually IC50 stands for the midpoint of a concentration-inhibition curve. Low values mean inhibition by little substance, high ones a need for much substance.
